Laboratory results as given in US7087648B1, “Methods for modulating macrophage proliferation using polyamine analogs” (The Regents of the University of California, priority 1997, dated 2006).

Legend:
[1] = test system: CD14^+/PCNA^+ peripheral blood macrophage; test: In vitro CD14/PCNA staining (FACSCAN) of PBMC from AIDS dementia patients cultured five days with agent; assay type: cell-based, human; conditions: one patient with AIDS dementia, 0 drug: 35/5000
[2] = test system: PCNA/CD14 cells; test: PCNA expression of peripheral macrophages (CD14 cells) from patients with AD, five days culture with agent; assay type: cell-based, human; conditions: FIG. 3
Procedure: (§1) We had previously separated peripheral blood monocytes on Ficoll. […] We then used Percoll gradient separation, which allows for denser cells to be captured. A two-step gradient was prepared in 15 mL conical tubes: bottom layer of 1.087 density Percoll, overlaid with 1.077 density. 1.5 mL whole heparinised blood was mixed with an equal volume of isotonic saline. This blood/saline was layered over the gradient and centrifuged. Cells from the 1.077 and 1.087 interfaces were collected combined, and washed in 5 volumes of RPMI 1640.
Five×10^5 PBMC's isolated through a 1.087 g/cc Percoll/saline gradient were exposed to varied concentrations of agent after baseline CD14/PCNA staining was performed as described in Example 3. The cells were cultured at 5×1O^5 cells in RPM1-1640/10% fetal calf serum in a polypropylene tube (Falcon) at 37° C. for five days. After five days CDI 14/PCNA staining was performed on control and agent-treated cultures. FACSCAN analysis of PCNA-positive cells in control cultures was compared with agent-treated cultures and percentage of control PCNA/CD14 cells was calculated. Two polyamine analogs, DENOP (SunPharm; Florida) and SL-11037 were tested.

[3] = test system: CD14^+/PCNA^+ peripheral blood macrophage; test: In vitro CD14/PCNA staining (FACSCAN) of PBMC from AIDS dementia patients cultured five days with agent; assay type: cell-based, human; conditions: for effect on macrophage proliferation: blood of one patient with AIDS dementia, Table 2; for CD14^+, PCNA^+ / TOTAL CD14/PCNA: one patient with AIDS dementia; for CD14^+, PCNA^+: 0 drug: 64/5000; for TOTAL CD14/PCNA: 0 drug: 388; for inhibition and/or killing of blood PCNA^+/CD14^+ cells: summary of the data shown; for CD14^+/PCNA^+ / CD14^+/PCNA^− / total CD14: HIV dementia patient five; for CD14^+/PCNA^+: 0 drug: 74; for CD14^+/PCNA^−: 0 drug: 472; for total CD14: 0 drug: 546
Procedure: as §1, with “collected,” for “collected”, “1640. […] All further experiments were performed using 1.087 gradient.” for “1640.”
Five×10^5 PBMC's isolated through a 1.087 g/cc Percoll/saline gradient were exposed to varied concentrations of agent after baseline CD14/PCNA staining was performed. The cells were cultured at 5×10^5 cells in RPM1-1640/10% fetal calf serum in a polypropylene tube (Falcon) at 37° C. for five days. After five days CD14/PCNA staining was performed on control and agent-treated cultures. FACSCAN analysis of PCNA-positive cells in control cultures was compared with agent-treated cultures and the percentage of control PCNA/CD14 cells was calculated. The results of such an experiment in which the effect of polyamine analog DEHOP (SunPharm; Florida) on proliferating macrophages (as detected by PCNA) from the blood of four patients with AIDS dementia are shown in FIG. 1A (with underlying data provided in Table 3). […] A comparison of the inhibitory effect of DEHOP and cyclosphosphamide, another anti-proliferative agent, was performed in vitro using the blood of one of these patients (“CB”).

[4] = test system: PCNA^+ macrophage; test: Inhibition of PCNA^+ macrophage detection, peripheral blood of HIV^+ sarcoid patient; assay type: cell-based, human; conditions: 60% of input CD14 cells PCNA^+, 96 hr after drug exposure and culture, FIG. 5
Procedure: Five×10^5 PBMC's isolated through a 1.087 g/cc Percoll/saline gradient were exposed to varied concentrations of agent after baseline CD14/PCNA staining was performed. […] FACSCAN analysis of PCNA-positive cells in control cultures was compared with agent-treated cultures and the percentage of control PCNA/CD14 cells was calculated.

[5] = test system: human brain tumor cell lines; conditions: cited from earlier work
[6] = target: T1, S-adenosylmethionine decarboxylase (Homo sapiens, UniProt P17707); conditions: competing with S-adenosylmethionine; cited from earlier work
T1 sequence (P17707 68-334 limits assumed): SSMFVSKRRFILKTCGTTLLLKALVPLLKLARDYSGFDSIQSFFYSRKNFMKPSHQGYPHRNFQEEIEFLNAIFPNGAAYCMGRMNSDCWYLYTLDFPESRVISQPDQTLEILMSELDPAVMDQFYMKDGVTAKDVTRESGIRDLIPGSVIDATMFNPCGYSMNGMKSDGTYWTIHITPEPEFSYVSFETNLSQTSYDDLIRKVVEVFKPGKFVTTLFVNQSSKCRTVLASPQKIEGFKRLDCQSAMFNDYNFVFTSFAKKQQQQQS
T1 sequence (P17707 1-67 limits assumed): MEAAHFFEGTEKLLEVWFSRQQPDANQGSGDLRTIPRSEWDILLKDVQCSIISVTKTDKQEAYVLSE

[7] = test system: P388 leukemia; conditions: mice bearing P388 leukemia; cited from earlier work
[8] = target: T2, spermine synthase (Homo sapiens, UniProt P52788); conditions: competing with spermidine; cited from earlier work
T2 sequence (P52788 1-366): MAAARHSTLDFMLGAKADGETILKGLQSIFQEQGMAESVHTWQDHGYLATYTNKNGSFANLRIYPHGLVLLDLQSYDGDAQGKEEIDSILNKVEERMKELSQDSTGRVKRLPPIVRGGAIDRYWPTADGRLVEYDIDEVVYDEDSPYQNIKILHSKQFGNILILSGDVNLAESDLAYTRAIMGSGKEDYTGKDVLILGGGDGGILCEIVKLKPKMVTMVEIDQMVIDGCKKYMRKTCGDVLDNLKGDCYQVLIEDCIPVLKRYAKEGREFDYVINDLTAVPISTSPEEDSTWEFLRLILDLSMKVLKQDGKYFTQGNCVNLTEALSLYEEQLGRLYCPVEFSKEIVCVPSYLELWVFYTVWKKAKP

[9] = test system: leukemic ascites cells; conditions: cited from earlier work
[10] = test system: spermine synthetase; conditions: competing with putrescine; cited from earlier work
[11] = test system: spermidine-spermine N1-acetyltransferase (SSAT); conditions: human melanoma cells; cited from earlier work
[12] = test system: rat aortic smooth muscle cells; conditions: in culture for 8 to 15 days; cited from earlier work

CCNCCCNC[C@@H]1C[C@@H]1CNCCCNCC.Cl.Cl.Cl.Cl [SL-11037, N-ethyl-N′-(2-(3′-ethylamino-propylaminomethyl)-cis-cyclopropylmethyl)-propane 1,3-diamine tetrahydrochloride]
CD14^+, CD69^+ ([1]; 2 μM): 46/ NO. OF CELLS/5,000 | CD14^+, CD69^+ ([1]; 10 μM): 49/ NO. OF CELLS/5,000 | CD14^+, CD69^+ ([1]; 50 μM): 33/ NO. OF CELLS/5,000 | percentage of proliferating macrophages (PCNA/CD14 cells) [2]: significantly reduced the percentage of proliferating macrophages | effect on macrophage proliferation [3]: showed inhibitory effects | CD14^+, PCNA^+ ([3]; 2 μM): 49/ NO. OF CELLS/5,000 | TOTAL CD14/PCNA ([3]; 2 μM): 276 NO. OF CELLS/5,000 | CD14^+, PCNA^+ ([3]; 10 μM): 32/ NO. OF CELLS/5,000 | TOTAL CD14/PCNA ([3]; 10 μM): 116 NO. OF CELLS/5,000 | CD14^+, PCNA^+ ([3]; 50 μM): 11/ NO. OF CELLS/5,000 | TOTAL CD14/PCNA ([3]; 50 μM): 79 NO. OF CELLS/5,000 | inhibition and/or killing of blood PCNA^+/CD14^+ cells [3]: potent inhibition and/or killing

CCNCCCNCCCNCCCNCC [DENOP, diethyl-norspermine]
CD14^+, CD69^+ ([1]; 2 μM): 32/ NO. OF CELLS/5,000 | CD14^+, CD69^+ ([1]; 10 μM): 23/ NO. OF CELLS/5,000 | CD14^+, CD69^+ ([1]; 50 μM): 32/ NO. OF CELLS/5,000 | percentage of proliferating macrophages (PCNA/CD14 cells) [2]: significantly reduced the percentage of proliferating macrophages | effect on macrophage proliferation [3]: showed inhibitory effects | CD14^+, PCNA^+ ([3]; 2 μM): 34/ NO. OF CELLS/5,000 | TOTAL CD14/PCNA ([3]; 2 μM): 149 NO. OF CELLS/5,000 | CD14^+, PCNA^+ ([3]; 10 μM): 23/ NO. OF CELLS/5,000 | TOTAL CD14/PCNA ([3]; 10 μM): 50 NO. OF CELLS/5,000 | CD14^+, PCNA^+ ([3]; 50 μM): 19/ NO. OF CELLS/5,000 | TOTAL CD14/PCNA ([3]; 50 μM): 43 NO. OF CELLS/5,000 | inhibition and/or killing of blood PCNA^+/CD14^+ cells [3]: potent inhibition and/or killing

CCNCCCNC/C=C\CNCCCNCC.Cl.Cl.Cl.Cl [SL-11047, N,N′-bis(3-ethylaminopropyl)-cis-but-2-ene-1,4-diamine tetrahydrochloride]
inhibition of PCNA^+ macrophage detection [4]: potent inhibitors | PCNA^+/CD14 cell survival ([3]; FIG. 6, averages of several (N) experiments): decrease | inhibition and/or killing of blood PCNA^+/CD14^+ cells [3]: potent inhibition and/or killing

CCNCCCCNCCCCNCCCCNCCCCNCC [BE-4444, 1,19-bis(ethylamino)-5,10,15-triazanonadecane]
growth, survival, and cell cycle progression [5]: directly affects growth, survival, and cell cycle progression | killing of PCNA^+/CD14^+ cells ([3]; FIG. 1B): potent killing | inhibition and/or killing of blood PCNA^+/CD14^+ cells [3]: potent inhibition and/or killing

CC(C=NNC(=N)NC1CCCC1)=NNC(=N)NC1CCCC1 [MGBCP, methylglyoxal-bis(cyclopentylamidinohydrazone)]
inhibition of S-adenosylmethionine decarboxylase [6]: inhibited | survival time [7]: prolonged survival time | inhibition of spermine synthase [8]: inhibited | spermidine and spermine in cells [9]: depleted | inhibition of spermine synthetase [10]: inhibited

CCNCCCNC[C@@H]1C[C@H]1CNCCCNCC.Cl.Cl.Cl.Cl (relative stereo) [SL-11044, N-ethyl-N′-(2-(3′-ethylamino-propylaminomethyl)-trans-cyclopropylmethyl)-propane 1,3-diamine tetrahydrochloride]
inhibition of PCNA^+ macrophage detection [4]: potent inhibitors | inhibition and/or killing of blood PCNA^+/CD14^+ cells [3]: potent inhibition and/or killing

CCNCCCNCCCNCCCNCC [DENSPM, 1,1 1-diethylnorspermine]
increase in immunodetectable SSAT protein [11]: 300 fold | increase of SSAT mRNA levels [11]: up to 20 fold

CCNCCCNCCCNCCCNCC [Bis-ethyl norspermine, 1,11 -bis(ethyl)norspermine]
cell growth [12]: inhibit the growth

CCNCCCNC[C@@H]1CC[C@H]1CNCCCNCC.Cl.Cl.Cl.Cl (relative stereo) [SL-11038, N-ethyl-N′-(2-(3′-ethylamino-propylaminomethyl)-trans-cyclobutylmethyl)-propane 1; 3-diamine tetrahydrochloride]
CD14^+, CD69^+ ([1]; 2 μM): 32/ NO. OF CELLS/5,000 | CD14^+, CD69^+ ([1]; 10 μM): 32/ NO. OF CELLS/5,000 | CD14^+, CD69^+ ([1]; 50 μM): 26/ NO. OF CELLS/5,000 | effect on macrophage proliferation [3]: showed inhibitory effects | CD14^+, PCNA^+ ([3]; 2 μM): 104/ NO. OF CELLS/5,000 | TOTAL CD14/PCNA ([3]; 2 μM): 356 NO. OF CELLS/5,000 | CD14^+, PCNA^+ ([3]; 10 μM): 36/ NO. OF CELLS/5,000 | TOTAL CD14/PCNA ([3]; 10 μM): 205 NO. OF CELLS/5,000 | CD14^+, PCNA^+ ([3]; 50 μM): 24/ NO. OF CELLS/5,000 | TOTAL CD14/PCNA ([3]; 50 μM): 104 NO. OF CELLS/5,000 | inhibition and/or killing of blood PCNA^+/CD14^+ cells [3]: potent inhibition and/or killing

O=P1(N(CCCl)CCCl)NCCCO1 (stereo not drawn) [Cyclophosphamide, reference compound]
CD14^+/PCNA^+ ([3]; 5 μg/ml): 70 #cells/10,000 PBMC | CD14^+/PCNA^− ([3]; 5 μg/ml): 272 #cells/10,000 PBMC | total CD14 ([3]; 5 μg/ml): 342 #cells/10,000 PBMC | CD14^+/PCNA^+ ([3]; 0.005 (μg/ml)): 71 #cells/10,000 PBMC | CD14^+/PCNA^− ([3]; 0.005 (μg/ml)): 295 #cells/10,000 PBMC | total CD14 ([3]; 0.005 (μg/ml)): 366 #cells/10,000 PBMC | CD14^+/PCNA^+ ([3]; 0.05 (μg/ml)): 99 #cells/10,000 PBMC | CD14^+/PCNA^− ([3]; 0.05 (μg/ml)): 455 #cells/10,000 PBMC | total CD14 ([3]; 0.05 (μg/ml)): 554 #cells/10,000 PBMC | CD14^+/PCNA^+ ([3]; 0.5 (μg/ml)): 49 #cells/10,000 PBMC | CD14^+/PCNA^− ([3]; 0.5 (μg/ml)): 390 #cells/10,000 PBMC | total CD14 ([3]; 0.5 (μg/ml)): 439 #cells/10,000 PBMC | in vitro toxicity in this assay system ([3]; blood of patient five): lack of in vitro toxicity

NCCCNCCCCNCCCN [spermine]
increase in immunodetectable SSAT protein [11]: ~7 fold | increase of SSAT mRNA levels [11]: ~3 fold
